Values joined by “and” are separate entries in the source; they are usually repeats but may differ in a detail not shown here. Equal values may be shown once.
Target: C. elegans complex II (succinate dehydrogenase) (Caenorhabditis elegans, UniProt O62215+P41956+Q09545)
Experiment: In vitro complex II activity assay, C. elegans mitochondria
Type: biochemical
Conditions: 100 µM compound, relative to solvent control, mean (SEM); read-out: % Activity Complex II
Outline: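 Mitochondria isolated from adult C. elegans were diluted to 0.2 mg/mL protein and assayed for complex II by the DCIP-coupled method. A600 was read every 30 s over 15 min, with initial linear slope expressed as percent of solvent control. Screening was at 100 μM (≥3 biological replicates), followed by dose-response.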

Chain of C. elegans complex II (succinate dehydrogenase) (P41956 30-182): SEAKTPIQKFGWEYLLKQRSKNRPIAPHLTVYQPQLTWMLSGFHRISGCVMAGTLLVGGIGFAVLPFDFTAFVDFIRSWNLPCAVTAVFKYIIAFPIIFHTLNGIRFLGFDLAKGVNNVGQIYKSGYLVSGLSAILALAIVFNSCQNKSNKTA
Chain of C. elegans complex II (succinate dehydrogenase) (Q09545 22-298): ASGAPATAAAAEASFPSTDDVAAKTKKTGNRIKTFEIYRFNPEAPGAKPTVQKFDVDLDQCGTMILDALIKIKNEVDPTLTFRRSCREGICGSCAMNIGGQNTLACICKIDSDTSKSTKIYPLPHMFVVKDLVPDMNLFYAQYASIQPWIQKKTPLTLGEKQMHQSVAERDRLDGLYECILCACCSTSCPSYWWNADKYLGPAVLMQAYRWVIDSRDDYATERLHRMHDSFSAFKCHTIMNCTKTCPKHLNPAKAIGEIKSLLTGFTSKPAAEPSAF
Chain of C. elegans complex II (succinate dehydrogenase) (Q09508 32-646, further chain): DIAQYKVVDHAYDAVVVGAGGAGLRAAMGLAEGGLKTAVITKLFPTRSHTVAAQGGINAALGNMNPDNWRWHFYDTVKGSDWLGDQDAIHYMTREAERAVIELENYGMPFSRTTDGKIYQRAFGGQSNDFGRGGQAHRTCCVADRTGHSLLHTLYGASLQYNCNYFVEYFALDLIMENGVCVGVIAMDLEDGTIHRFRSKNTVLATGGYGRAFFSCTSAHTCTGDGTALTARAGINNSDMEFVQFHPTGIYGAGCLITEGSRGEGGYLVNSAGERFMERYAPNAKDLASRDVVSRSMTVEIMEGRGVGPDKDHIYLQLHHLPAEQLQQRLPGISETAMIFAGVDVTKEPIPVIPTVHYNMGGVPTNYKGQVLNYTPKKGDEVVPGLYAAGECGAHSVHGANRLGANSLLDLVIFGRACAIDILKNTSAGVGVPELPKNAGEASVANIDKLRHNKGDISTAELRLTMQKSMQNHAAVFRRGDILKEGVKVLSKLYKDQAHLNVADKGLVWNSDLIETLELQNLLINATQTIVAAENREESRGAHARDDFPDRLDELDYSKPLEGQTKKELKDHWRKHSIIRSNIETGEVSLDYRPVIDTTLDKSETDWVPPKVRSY
Chain of C. elegans complex II (succinate dehydrogenase) (O62215 31-145): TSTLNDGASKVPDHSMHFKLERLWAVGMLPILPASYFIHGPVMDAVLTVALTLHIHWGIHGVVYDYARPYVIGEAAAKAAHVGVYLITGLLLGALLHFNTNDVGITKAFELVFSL

Row | Structure (SMILES) | activity at 100 µM
1 | C=C(C)[C@H]1Cc2c(ccc3c2O[C@@H]2COc4cc(OC)c(OC)cc4[C@@H]2C3=O)O1 [Rotenone, reference compound] | 106%
2 | COc1cc2c(cc1OC)C(/C=C/c1ccc(N(C)C)cc1)=NCC2 [NPD6303] | 101%
3 | COc1cc2c(cc1OC)C(C(C)c1ccc(CC(C)C)cc1)=NCC2 (centres unmarked) [NPD10504] | 106%
4 | CC(C)Cc1ccc(C(C)c2nc3ccccc3n2C)cc1 (centres unmarked) [NPD8790] | 99.7%

Same assay, conditions: 100 μM inhibitor; in vitro activity relative to solvent control; N2 C. elegans mitochondria; Mean; read-out: CII Activity

Row | Structure (SMILES) | activity at 100 µM
5 | C=C(C)[C@H]1Cc2c(ccc3c2O[C@@H]2COc4cc(OC)c(OC)cc4[C@@H]2C3=O)O1 [Rotenone, reference compound] | 106%

Same assay, conditions: 100 μM of NPD compound; C. elegans mitochondria; individual biological replicates; 100 µM

Row | Structure (SMILES) | Percent in vitro activity, Complex II (single replicate Rep1-Rep4)
6 | C=C(C)[C@H]1Cc2c(ccc3c2O[C@@H]2COc4cc(OC)c(OC)cc4[C@@H]2C3=O)O1 [Rotenone, reference compound] | 120.467% and 95.666% and 95.033% and 112.709%
7 | COc1cc2c(cc1OC)C(/C=C/c1ccc(N(C)C)cc1)=NCC2 [NPD6303] | 124.122% and 89.817% and 91.578% and 100.352%
8 | COc1cc2c(cc1OC)C(C(C)c1ccc(CC(C)C)cc1)=NCC2 (centres unmarked) [NPD10504] | 86.801% and 136.285% and 101.347% and 99.840%
9 | CC(C)Cc1ccc(C(C)c2nc3ccccc3n2C)cc1 (centres unmarked) [NPD8790] | 81.090% and 92.425% and 103.697% and 121.642%

Same assay, conditions: 100 μM of NPD compound; C. elegans mitochondria; mean of four biological replicates; read-out: Percent in vitro activity, Complex II (Mean)

Row | Structure (SMILES) | activity at 100 µM
10 | C=C(C)[C@H]1Cc2c(ccc3c2O[C@@H]2COc4cc(OC)c(OC)cc4[C@@H]2C3=O)O1 [Rotenone, reference compound] | 106%
11 | COc1cc2c(cc1OC)C(/C=C/c1ccc(N(C)C)cc1)=NCC2 [NPD6303] | 101%
12 | COc1cc2c(cc1OC)C(C(C)c1ccc(CC(C)C)cc1)=NCC2 (centres unmarked) [NPD10504] | 106%
13 | CC(C)Cc1ccc(C(C)c2nc3ccccc3n2C)cc1 (centres unmarked) [NPD8790] | 99.7%

Test system: C. elegans complex III (decylubiquinol-cytochrome C reductase)
Experiment: In vitro complex III activity assay, C. elegans mitochondria
Type: biochemical, Caenorhabditis elegans
Conditions: 100 µM compound, relative to solvent control, mean (SEM)
Outline: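 Mitochondria were isolated from adult C. elegans by bead-beating and differential centrifugation, then used at 0.2 mg/mL protein. Antimycin A-sensitive complex III activity was followed as decylubiquinol-driven cytochrome C reduction at 550 nm every 30 s for 15 min. Initial linear slopes were expressed as percent of solvent control.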

Row | Structure (SMILES) | % Activity Complex III
14 | C=C(C)[C@H]1Cc2c(ccc3c2O[C@@H]2COc4cc(OC)c(OC)cc4[C@@H]2C3=O)O1 [Rotenone, reference compound] | 99.20 (1.32) %
15 | COc1cc2c(cc1OC)C(/C=C/c1ccc(N(C)C)cc1)=NCC2 [NPD6303] | 78.10 (1.39) %
16 | COc1cc2c(cc1OC)C(C(C)c1ccc(CC(C)C)cc1)=NCC2 (centres unmarked) [NPD10504] | 79.51 (1.51) %
17 | CC(C)Cc1ccc(C(C)c2nc3ccccc3n2C)cc1 (centres unmarked) [NPD8790] | 63.54 (0.90) %

Same assay, conditions: 100 μM inhibitor; in vitro activity relative to solvent control; N2 C. elegans mitochondria; Mean

Row | Structure (SMILES) | CIII Activity
18 | C=C(C)[C@H]1Cc2c(ccc3c2O[C@@H]2COc4cc(OC)c(OC)cc4[C@@H]2C3=O)O1 [Rotenone, reference compound] | 99.203%

Same assay, conditions: 100 μM inhibitor; in vitro activity relative to solvent control; N2 C. elegans mitochondria; single replicate

Row | Structure (SMILES) | CIII Activity
19 | C=C(C)[C@H]1Cc2c(ccc3c2O[C@@H]2COc4cc(OC)c(OC)cc4[C@@H]2C3=O)O1 [Rotenone, reference compound] | 92.288% and 102.759% and 97.964% and 103.800%

Same assay, conditions: 100 μM of NPD compound; C. elegans mitochondria; individual biological replicates

Row | Structure (SMILES) | Percent in vitro activity, Complex III (single replicate Rep1-Rep4)
20 | C=C(C)[C@H]1Cc2c(ccc3c2O[C@@H]2COc4cc(OC)c(OC)cc4[C@@H]2C3=O)O1 [Rotenone, reference compound] | 102.759% and 97.964% and 103.800% and 92.288%
21 | COc1cc2c(cc1OC)C(/C=C/c1ccc(N(C)C)cc1)=NCC2 [NPD6303] | 81.950% and 83.314% and 71.366% and 75.773%
22 | COc1cc2c(cc1OC)C(C(C)c1ccc(CC(C)C)cc1)=NCC2 (centres unmarked) [NPD10504] | 86.667% and 75.479% and 82.250% and 73.635%
23 | CC(C)Cc1ccc(C(C)c2nc3ccccc3n2C)cc1 (centres unmarked) [NPD8790] | 58.669% and 65.835% and 63.074% and 66.590%

Same assay, conditions: 100 μM of NPD compound; C. elegans mitochondria; mean of four biological replicates

Row | Structure (SMILES) | Percent in vitro activity, Complex III (Mean)
24 | C=C(C)[C@H]1Cc2c(ccc3c2O[C@@H]2COc4cc(OC)c(OC)cc4[C@@H]2C3=O)O1 [Rotenone, reference compound] | 99.203%
25 | COc1cc2c(cc1OC)C(/C=C/c1ccc(N(C)C)cc1)=NCC2 [NPD6303] | 78.101%
26 | COc1cc2c(cc1OC)C(C(C)c1ccc(CC(C)C)cc1)=NCC2 (centres unmarked) [NPD10504] | 79.508%
27 | CC(C)Cc1ccc(C(C)c2nc3ccccc3n2C)cc1 (centres unmarked) [NPD8790] | 63.542%

Test system: C. elegans complex IV (cytochrome C oxidase)
Experiment: In vitro complex IV activity assay, C. elegans mitochondria
Type: biochemical, Caenorhabditis elegans
Conditions: 100 µM compound, relative to solvent control, mean (SEM)
Outline: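 Cytochrome C oxidase activity read spectrophotometrically at 550 nm (30 s intervals, 15 min) as oxidation of freshly DTT-reduced CytC. Mitochondria (0.2 mg/mL) came from adult worms of six C. elegans strains grown at 20 °C. Rates were taken from initial linear phase and normalised to solvent-control wells.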

Row | Structure (SMILES) | % Activity Complex IV
28 | C=C(C)[C@H]1Cc2c(ccc3c2O[C@@H]2COc4cc(OC)c(OC)cc4[C@@H]2C3=O)O1 [Rotenone, reference compound] | 99.57 (1.12) %
29 | COc1cc2c(cc1OC)C(/C=C/c1ccc(N(C)C)cc1)=NCC2 [NPD6303] | 83.07 (1.76) %
30 | COc1cc2c(cc1OC)C(C(C)c1ccc(CC(C)C)cc1)=NCC2 (centres unmarked) [NPD10504] | 74.57 (1.35) %
31 | CC(C)Cc1ccc(C(C)c2nc3ccccc3n2C)cc1 (centres unmarked) [NPD8790] | 79.84 (1.34) %

Same assay, conditions: 100 μM inhibitor; in vitro activity relative to solvent control; N2 C. elegans mitochondria; Mean

Row | Structure (SMILES) | CIV Activity
32 | C=C(C)[C@H]1Cc2c(ccc3c2O[C@@H]2COc4cc(OC)c(OC)cc4[C@@H]2C3=O)O1 [Rotenone, reference compound] | 99.566%

Same assay, conditions: 100 μM inhibitor; in vitro activity relative to solvent control; N2 C. elegans mitochondria; single replicate

Row | Structure (SMILES) | CIV Activity
33 | C=C(C)[C@H]1Cc2c(ccc3c2O[C@@H]2COc4cc(OC)c(OC)cc4[C@@H]2C3=O)O1 [Rotenone, reference compound] | 94.435% and 102.333% and 104.163% and 97.333%

Same assay, conditions: 100 μM of NPD compound; C. elegans mitochondria; individual biological replicates

Row | Structure (SMILES) | Percent in vitro activity, Complex IV (single replicate Rep1-Rep4)
34 | C=C(C)[C@H]1Cc2c(ccc3c2O[C@@H]2COc4cc(OC)c(OC)cc4[C@@H]2C3=O)O1 [Rotenone, reference compound] | 102.333% and 104.163% and 97.333% and 94.435%
35 | COc1cc2c(cc1OC)C(/C=C/c1ccc(N(C)C)cc1)=NCC2 [NPD6303] | 86.689% and 90.588% and 80.321% and 74.685%
36 | COc1cc2c(cc1OC)C(C(C)c1ccc(CC(C)C)cc1)=NCC2 (centres unmarked) [NPD10504] | 71.688% and 71.402% and 72.596% and 82.587%
37 | CC(C)Cc1ccc(C(C)c2nc3ccccc3n2C)cc1 (centres unmarked) [NPD8790] | 83.143% and 80.952% and 83.287% and 71.964%

Same assay, conditions: 100 μM of NPD compound; C. elegans mitochondria; mean of four biological replicates

Row | Structure (SMILES) | Percent in vitro activity, Complex IV (Mean)
38 | C=C(C)[C@H]1Cc2c(ccc3c2O[C@@H]2COc4cc(OC)c(OC)cc4[C@@H]2C3=O)O1 [Rotenone, reference compound] | 99.566%
39 | COc1cc2c(cc1OC)C(/C=C/c1ccc(N(C)C)cc1)=NCC2 [NPD6303] | 83.071%
40 | COc1cc2c(cc1OC)C(C(C)c1ccc(CC(C)C)cc1)=NCC2 (centres unmarked) [NPD10504] | 74.568%
41 | CC(C)Cc1ccc(C(C)c2nc3ccccc3n2C)cc1 (centres unmarked) [NPD8790] | 79.837%

From paper PMC11079024, “Identification of a family of species-selective complex I inhibitors as potential anthelmintics” (Nature Communications, 2024)
